Results reported in patent US20080159958A1, “DETERMINATION OF HISTAMINE-3 BIOACTIVITY” (Abbott Laboratories, priority 2006, published 2008).
Read-outs that look alike come from different tables or passages of the source.

Key:
human H3 receptor = biological target: T1, human H3 receptor (Homo sapiens, UniProt Q9Y5N1); assay: Competition binding assay with [3H]-N-α-methylhistamine, human H3 receptor; conditions: cloned human H3 receptor, cell membranes
T1 construct: expressed in transfected cells
Procedure: Membrane preparations were incubated with [^3H]-N-α-methylhistamine (0.5-1.0 nM) in the presence or absence of increasing concentrations of ligands for H3 receptor competition binding.

[1] = test system: diphenhydramine-induced increase of rat 1-4 Hz EEG amplitude; assay: Rat cortical EEG, H3R antagonist co-administered with diphenhydramine (1-4 Hz amplitude); assay type: in vivo; conditions: rats
Procedure: (§1) All experiments have been approved by the Institutional Animal Care and Use Committee (IACUC) at Abbott Laboratories and are in strict accordance with the ethical guidelines for use of laboratory animals. All experiments were conducted with male adult CD-1 rats of the Sprague-Dawley strain (Charles River Laboratories, Portage, Mich.) with body weights in the range of 400-600 g. When the rats were not in the laboratory being tested, they were housed 1 per cage in a climate controlled room with 12 hour lights on, 12 hour lights off cycle and food provided ad-lib.
(§2) For anesthesia during surgical implantation of EEG recording electrodes, rats are administered Nembutal (Abbott Laboratories) […] ip. After achieving a deep, stable plane of anesthesia, scalp hair is removed using electric clippers and the rat is placed into the ear and incisor bars of a stereotaxic instrument to immobilize the head. The scalp is disinfected with povidone iodine, and an incision is placed longitudinally along the midline of the scalp and the tissue retracted from the skull with a blunt probe. EEG recording electrodes are bilaterally implanted over the parietal (−2.0 mm anterior-posterior, 4.0 mm lateral from bregma) and frontal (+2.0 mm anterior-posterior, 3.0 mm lateral from bregma) cortices. A reference electrode was placed 11.0 mm posterior to bregma along the centerline (0.0 mm lateral). Cortical surface electrodes consist of stainless steel screws (size #90-00) soldered to a fine wire and a miniature electrical socket. To implant the electrodes, small holes are drilled (#60 bit) into the skull, taking care not to damage the dura with the drill bit. […] Once in place, the electrodes along with the miniature connector are permanently affixed to the skull with acrylic dental cement. The rats are given a 10-14 day recovery period from the surgery before experiments are conducted.
The EEG was recorded from rats inside sound-attenuating chambers (Med Associates Inc, St. Albans, Vt.). Before any pharmacological experiments began, implanted rats were habituated to the EEG recording chambers for 2-5 hours on 5 consecutive days. When placed into the recording chambers, a flexible cable is attached to the miniature connector implanted on the rats. This cable allows the rat unrestricted movement within the chambers during the recording session. […]
(§3) Assessment of cortical low frequency EEG amplitude in the 1-4 Hz band (delta) was used as an electrophysiological measure of H1R and H3R antagonist activity in rats. The average 1-4 Hz EEG amplitude in microvolts (μV) was determined for 10 second epochs using Fast Fourier Transform (FFT) analysis. To determine the average 1-4 Hz EEG amplitude for the first 60 minutes of the recording, 360-10 sec FFT analyzed epochs were averaged together. […]

rat 1-4 Hz EEG amplitude = assay: Rat cortical EEG, H1R or H3R antagonist given alone (1-4 Hz amplitude); assay type: in vivo; conditions: rats, vs. vehicle control
Procedure: as §1, §2
The EEG was recorded from rats inside sound-attenuating chambers (Med Associates Inc, St. Albans, Vt.). Before any pharmacological experiments began, implanted rats were habituated to the EEG recording chambers for 2-5 hours on 5 consecutive days. When placed into the recording chambers, a flexible cable is attached to the miniature connector implanted on the rats. This cable allows the rat unrestricted movement within the chambers during the recording session. EEG amplifiers (AM Systems, Inc., Carlsborg, Wash.) and a computer-based data acquisition system (Datawave Inc., Berthoud, Colo.) were used to acquire (256 Hz sampling rate) and analyze data. All experiments and habituation sessions were conducted during the light phase of the circadian cycle.
Dose response effects on EEG were determined for the H3R antagonist Compound 1 (0.01-1.0 mg/kg), ABT-239 (0.1-3.0 mg/kg), and thioperamide (3.0-30.0 mg/kg). […] Dose response effects on EEG were also determined for the H1 antagonist diphenhydramine (1.0-10.0 mg/kg). […] Each rat received a vehicle control treatment (placebo), and all doses of the test compounds. All treatments were administered by the intraperitoneal (i.p.) route of administration. The treatments were administered in a random order on different days with one treatment per day, and at least 2 days between treatments. This within subjects design allowed each rat to serve as its own control. EEG recordings were begun within 10 minutes after injection and recording sessions lasted for 120 minutes. The time of day for injections and subsequent recordings were between 10:00 AM and 2:00 PM.
as §3

[2] = biological target: rat histamine H3 receptor (Rattus norvegicus, UniProt Q9QYN8); assay: Competition binding assay with [3H]-N-α-methylhistamine, rat H3 receptor
rat histamine H3 receptor, sequence (Q9QYN8 whole entry): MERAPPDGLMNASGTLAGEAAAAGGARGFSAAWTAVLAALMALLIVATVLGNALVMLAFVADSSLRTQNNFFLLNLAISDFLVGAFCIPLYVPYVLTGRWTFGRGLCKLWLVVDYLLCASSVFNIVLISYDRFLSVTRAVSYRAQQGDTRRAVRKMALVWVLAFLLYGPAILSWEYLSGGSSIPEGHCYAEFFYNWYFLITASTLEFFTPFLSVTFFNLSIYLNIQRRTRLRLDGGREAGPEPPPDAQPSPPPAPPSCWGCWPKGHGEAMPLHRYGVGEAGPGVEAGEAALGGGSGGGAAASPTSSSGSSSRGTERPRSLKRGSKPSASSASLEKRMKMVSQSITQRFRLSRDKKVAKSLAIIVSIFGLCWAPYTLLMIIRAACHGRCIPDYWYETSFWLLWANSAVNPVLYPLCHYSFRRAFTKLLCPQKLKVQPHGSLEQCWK
Procedure: The rat and human H3 receptor was cloned and expressed in cells, and competition binding assays carried out, according to methods previously described (see Esbenshade, et al. Journal of Pharmacology and Experimental Therapeutics, vol. 313:165-175, 2005; Esbenshade et al., Biochemical Pharmacology 68 (2004) 933-945; Krueger, et al. Journal of Pharmacology and Experimental Therapeutics, vol. 314:271-281, 2005. Membranes were prepared from C6 or HEK293 cells, expressing the rat histamine H3 receptor, by homogenization on ice in TE buffer (50 mM Tris-HCl buffer, pH 7.4, containing 5 mM EDTA), 1 mM benzamidine, 2 μg/ml aprotinin, 1 μg/ml leupeptin, and 1 μg/ml pepstatin. The homogenate was centrifuged at 40,000 g for 20 minutes at 4° C. This step was repeated, and the resulting pellet was resuspended in TE buffer. Aliquots were frozen at −70° C. until needed. On the day of assay, membranes were thawed and diluted with TE buffer.
Membrane preparations were incubated with [^3H]-N-α-methylhistamine (0.5-1.0 nM) in the presence or absence of increasing concentrations of ligands for H3 receptor competition binding. […] Bound radiolabel was determined by liquid scintillation counting. For all of the radioligand competition binding assays, IC50 values and Hill slopes were determined by Hill transformation of the data and pKi values were determined by the Cheng-Prusoff equation.

T1 sequence (Q9Y5N1 whole entry): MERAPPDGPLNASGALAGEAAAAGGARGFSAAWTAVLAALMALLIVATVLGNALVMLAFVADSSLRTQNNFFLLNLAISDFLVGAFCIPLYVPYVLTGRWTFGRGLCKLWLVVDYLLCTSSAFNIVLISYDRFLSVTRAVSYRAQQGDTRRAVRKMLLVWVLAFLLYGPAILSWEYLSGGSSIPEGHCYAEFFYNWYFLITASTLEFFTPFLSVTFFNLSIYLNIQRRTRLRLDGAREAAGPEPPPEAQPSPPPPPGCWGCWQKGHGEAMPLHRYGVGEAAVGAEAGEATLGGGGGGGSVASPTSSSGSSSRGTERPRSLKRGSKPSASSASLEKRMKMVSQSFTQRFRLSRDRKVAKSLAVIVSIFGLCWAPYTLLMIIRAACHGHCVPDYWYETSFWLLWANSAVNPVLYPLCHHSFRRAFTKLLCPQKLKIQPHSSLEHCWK

CN1C[C@H]2CCN(c3ccc(-c4ccc(-n5ncccc5=O)cc4)cc3)[C@H]2C1 [Compound 1, (3aR, 6aR)-2-[4′-(5-methyl-hexahydro-pyrrolo[3,4-b]pyrrol-1-yl)-biphenyl-4-yl]-2H-pyridazin-3-one]
Ki (human H3 receptor): 1.9 nM
effect on diphenhydramine-induced increase of average 1-4 Hz EEG amplitude ([1]; 0.01 mg/kg i.p. given 15 minutes before diphenhydramine 10.0 mg/kg i.p.): did not achieve statistical significance
effect on diphenhydramine-induced increase of average 1-4 Hz EEG amplitude ([1]; 0.03 mg/kg and 0.1 mg/kg i.p. given 15 minutes before diphenhydramine 10.0 mg/kg i.p.): significantly reduces
effect on average amplitude of 1-4 Hz EEG, given alone (rat 1-4 Hz EEG amplitude; 1.0 mg/kg i.p., first hour after injection): lower the average amplitude of 1-4 Hz EEG
effect on average amplitude of 1-4 Hz EEG, given alone (rat 1-4 Hz EEG amplitude; 0.01-0.1 mg/kg i.p., first hour): did not produce significant lowering
Ki [2]: 8.1 nM

C[C@@H]1CCCN1CCc1cc2cc(-c3ccc(C#N)cc3)ccc2o1 [Compound 2, 4-(2-[2-((R)-2-methyl-pyrrolidin-1-yl)-ethyl]-benzofuran-5-yl}-benzonitrile]
effect on diphenhydramine-induced increase of average 1-4 Hz EEG amplitude ([1]; 0.3 mg/kg i.p. given 15 minutes before diphenhydramine 10.0 mg/kg i.p.): significantly reduces
effect on average amplitude of 1-4 Hz EEG, given alone (rat 1-4 Hz EEG amplitude; 3.0 mg/kg i.p., first hour): trend toward a decrease
effect on average amplitude of 1-4 Hz EEG, given alone (rat 1-4 Hz EEG amplitude; 0.1-3.0 mg/kg i.p., first hour): did not produce statistically significant lowering

S=C(NC1CCCCC1)N1CCC(c2c[nH]cn2)CC1 [Compound 3, N-cyclohexyl-4-(1H-imidazol-4-yl)piperidine-1-carbothioamide]
effect on diphenhydramine-induced increase of average 1-4 Hz EEG amplitude ([1]; 3.0 mg/kg i.p. given 15 minutes before diphenhydramine 10.0 mg/kg i.p.): significantly reduces
effect on average amplitude of 1-4 Hz EEG, given alone (rat 1-4 Hz EEG amplitude; 30.0 mg/kg i.p., first hour after injection): lower the average amplitude of 1-4 Hz EEG
effect on average amplitude of 1-4 Hz EEG, given alone (rat 1-4 Hz EEG amplitude; 3.0-10. mg/kg i.p., first hour): did not produce significant lowering
Ki ([2]; read-out: rat H3 Ki, cloned rat H3 receptor, C6 or HEK293 cell membranes): 3.6 nM

CN(C)CCOC(c1ccccc1)c1ccccc1 [diphenhydramine]
effect on average amplitude of 1-4 Hz EEG, given alone (rat 1-4 Hz EEG amplitude; 10.0 mg/kg i.p., first hour): significantly increased
effect on average amplitude of 1-4 Hz EEG, given alone (rat 1-4 Hz EEG amplitude; 1.0-3.0 mg/kg i.p., first hour): not significantly different from vehicle control
